PubChem BioAssay (NCI)
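1) Cells in 96-well plates. 2) Compound, 48 h, 5 concentrations. 3) Linear interpolation between surrounding doses. 4) Unreached endpoint = highest concentration. At the GI50, growth is halved. TGI marks complete inhibition of growth.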

Key:
Assay in all cases: DTP human tumour cell line panel, 48 h
[1] = system: OVCAR-3 ovarian
[2] = system: A549 NSCLC
[3] = system: LOX IMVI melanoma
[4] = system: RXF 393 renal
[5] = system: HL-60(TB) leukemia
[6] = system: HOP-92 NSCLC
[7] = system: COLO 205 colon
[8] = system: OVCAR-4 ovarian

Structure (SMILES)	GI50 [1]	TGI [1]	GI50 [2]	TGI [2]	GI50 [3]	TGI [3]	GI50 [4]	TGI [4]	GI50 [5]	TGI [5]	GI50 [6]	TGI [6]	GI50 [7]	TGI [7]	GI50 [8]	TGI [8]
CCS(=O)(=O)c1ccc(OC)c(Nc2nccc(N(C)c3ccc4c(C)[nH]nc4c3)n2)c1	7.42 µM	> 25 µM	9.83 µM	> 25 µM	4.29 µM	12 µM	2700 nM	7.81 µM	7.37 µM	18.9 µM	0.622 µM	3.64 µM	11 µM	> 25 µM	5.66 µM	> 25 µM
O=C(Nc1ccc(Nc2ccncc2)cc1)c1ccc(Nc2ccnc3ccc([N+](=O)[O-])cc23)cc1	6.35 µM	> 100 µM	> 100 µM	> 100 µM	> 100 µM	> 100 µM	–	–	> 100 µM	> 100 µM	> 100 µM	> 100 µM	> 100 µM	> 100 µM	> 100 µM	> 100 µM
Cc1cc(N/N=C/c2nc(-c3ccccc3)oc2C)c2cc(Cl)ccc2n1	1.94 µM	3.57 µM	1.85 µM	3.58 µM	–	–	1700 nM	3.42 µM	–	–	1.43 µM	2.87 µM	1.8 µM	3.66 µM	1.85 µM	3.53 µM
O=C(Nc1ccc2oc(=O)c(C(=O)O)cc2c1)Oc1ccccc1	–	> 100 µM	–	> 100 µM	–	> 100 µM	–	> 100 µM	–	–	–	> 100 µM	–	> 100 µM	–	> 100 µM
N#CC(C#N)=CN1CCN(C(=O)c2ccccc2)C1=S	36.4 µM	> 100 µM	37.1 µM	> 100 µM	> 100 µM	> 100 µM	22700 nM	70.7 µM	33.5 µM	79.4 µM	56.8 µM	> 100 µM	–	–	59.3 µM	> 100 µM
CCOC(=O)C#Cc1ccc(C#CC(=O)OCC)cc1	–	> 20.5 µM	–	> 37.5 µM	–	> 22.1 µM	–	16.6 µM	–	6.34 µM	–	> 31.7 µM	–	16.5 µM	–	–
COc1cc(-c2cn(-c3ccc(Cl)cc3)c(=O)[nH]2)cc(OC)c1OC	> 100 µM	> 100 µM	> 100 µM	> 100 µM	> 100 µM	> 100 µM	> 100000 nM	> 100 µM	–	–	> 100 µM	> 100 µM	> 100 µM	> 100 µM	> 100 µM	> 100 µM
COc1ccc(C(=O)/C=C/c2cc(C(=O)c3cc(OC)c(OC)c(OC)c3)ccc2OC)cc1	–	–	> 100 µM	> 100 µM	–	–	14700 nM	> 100 µM	–	–	5.81 µM	58.9 µM	–	–	–	–
CCC(C)/C=C(C)/C=C/C(=O)c1c(O)c(-c2ccc(O)cc2)c[nH]c1=O (centres undefined)	2.79 µM	9.33 µM	4.3 µM	20.1 µM	3.49 µM	13.2 µM	1960 nM	6.97 µM	2.43 µM	21.2 µM	–	–	7.2 µM	19.5 µM	4.13 µM	25.3 µM
